pKd: −log10 of the molar value.
Target: Peptidyl-prolyl cis-trans isomerase A (Homo sapiens, UniProt P62937)
Experiment: CYPA Binding Analysis by Surface Plasmon Resonance (SPR) Assay
Experimental: All SPR experiments were conducted on a Biacore 8K+ instrument (Cytiva). Recombinant biotinylated CYPA protein with a C-terminal AVI tag was purified and immobilized on flow cell 2 of SA chip (Cytiva, BR100531), with the flow cell 1 as the blank reference. The running buffer was HBS-P+ Buffer (Cytiva, BR100827, 0.01 M HEPES pH 7.4,0.15 M NaCl, 0.05% v/v Surfactant P20), and the flow rate was 10 μL/min. The immobilization level was achieved to about 1800 response units (RU). Compounds were 3-fold serially diluted to 1.5-3333 nM using HBS-P+Buffer with a final DMSO concentration of 1.5%, and then loaded to flow through the chip surface at a rate of 30 μL/min with HBS-P+Buffer containing 1.5% DMSO as the running buffer. Experiments were performed at 25° C. The contact time and dissociation time were set to 60 s and 200 s, respectively. After binding and dissociation of each sample, the chip was regenerated using 1 M NaCl with a short contact time of 19 s at a rate of 60 μL/min. The sensorgrams were analyzed using Biacore Insight Evaluation software with 1:1 kinetics binding model to determine the association rate constant (kon), dissociation rate constant (koff) and equilibrium dissociation constant (KD).

Chain of Peptidyl-prolyl cis-trans isomerase A (P62937 whole entry): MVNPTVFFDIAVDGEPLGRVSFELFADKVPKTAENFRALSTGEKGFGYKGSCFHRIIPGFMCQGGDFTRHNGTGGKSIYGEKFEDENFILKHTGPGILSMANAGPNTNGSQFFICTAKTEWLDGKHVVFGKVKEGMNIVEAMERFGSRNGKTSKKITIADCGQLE

SMILES: CCn1c(-c2cc(N3CCN(C)CC3)cnc2[C@H](C)OC)c2c3cc(ccc31)-c1csc(n1)C[C@H](NC(=O)[C@H]1C[C@@H]1C)C(=O)N1CCC[C@H](N1)C(=O)OCC(C)(C)O2 [US20240417410, Example A122]
- pKd: 7.52

Source: BindingDB's records for patent US20240417410 (Hoffmann-La Roche, 2024)
